Results from patent US20260007613A1, “LONG-ACTING LOW-TOXICITY NOVEL CATIONIC LIPID COMPOUNDS AND COMPOSITION THEREOF” (BEIJING YOUCAREKECHUANG PHARMACEUTICAL TECHNOLOGY CO., LTD., priority 2023, published 2026).
Where “and” joins values, the source holds several entries; their conditions need not be identical. Equal entries are not always repeated.

What was measured:
[1] = Particle size and polydispersity index (PDI) of lipid nanoparticles by dynamic light scattering; assay type: physicochemical; settings: LNP formulation prepared from the cationic lipid, 25° C.
Procedure: The particle size and polydispersity index (PDI) were determined by dynamic light scattering using Malvern laser particle size analyzer.
10 μL of the liposome solution was weighed, diluted to 1 mL with RNase-free deionized water, and added to the sample pool. Each sample was measured in triplicate. The measurement conditions were: […] scattering angle, and 25° C.

[2] = tested on: 293T cells; experiment: Fluorescent detection of Fluc-mRNA (cell transfection efficiency of LNP formulations); assay type: cell-based; settings: for Relative light unit (RLU): LNP formulation of Fluc-mRNA, 96-well plate, 24 hours; for Multiples (YK-305): RLU of YK-305 / RLU of the lipid of the line; for Multiples (YK-310): RLU of YK-310 / RLU of the lipid of the line; for Multiples (YK-312): RLU of YK-312 / RLU of the lipid of the line; for Ratio relative to SM-102: RLU of the lipid / RLU of SM-102, times that of SM-102
Procedure: (§1) Cell recovery and passage: 293T cells were recovered, cultured in a culture dish, and passaged to the required number of cells.
(§2) Seeding plate: The cells in the culture dish were digested and counted. Cells were spread in a 96-well plate at 10,000 cells per well and in a 12-well plate at 150,000 cells per well. Cells were cultured overnight until the cells adhered to the wall.
(§3) Cell recovery and passage: the method was the same as in Example 3.
(§4) Seeding plate: the method was the same as in Example 3.
An LNP formulation containing […] of Fluc-mRNA (the carrier components of the LNP formulation were cationic lipid, neutral lipid, structured lipid and polymer-conjugated lipid with a molar ratio of 49:10:39.5:1.5, wherein the cationic lipid was listed in Table 1) was added to the cell culture medium of a 96-well plate, and further incubated for 24 hours. The corresponding reagent was added according to the instructions of the […] Luciferase Assay Kit, and the fluorescence expression intensity of each well was detected by an IVIS fluorescence detection system. This test verified the transfection efficiencies of LNP formulations in cells, see Tables 4-7 for specific test results.

[3] = tested on: female BALB/C mice; experiment: Live imaging in mice: protein expression of Fluc-mRNA delivered by LNP formulations; assay type: in vivo; settings: for average radiation intensity, times that of ALC-0315: comparator ALC-0315; for average radiation intensity, times that of HHMA: comparator HHMA; for average radiation intensity, times that of SM-102: comparator SM-102; for expression of mRNA in mice, times that of YK-302: comparator YK-302; for expression amount, times that of YK-321: comparator YK-321; for average radiation intensity, times that of compound 21: comparator compound 21; for average radiation intensity, times that of compound 23: comparator compound 23
Procedure: In addition, the protein expression and duration of mRNA in mice delivered by the cationic lipid delivery carriers designed were also verified.
The LNP formulation containing […] Fluc-mRNA was injected intramuscularly into female BALB/C mice aged 4 to 6 weeks old and weighed 17 to 19 g, and the mice were intraperitoneally injected with fluorescent imaging substrate at specific time points after administration (6 h, 24 h, 48 h and 7 d), where the mice were free to move for 5 minutes, and then the average radiation intensity (corresponding to fluorescence expression intensity) of the protein expression of the mRNA carried by the LNP in the mice was detected by the IVIS Spectrum small animal live imaging device.

[4] = tested on: 293T cells; experiment: Cell survival rate determination (CCK-8); assay type: cell-based; settings: for Cell survival rate (%): LNP formulation of Fluc-mRNA, 24 hours, CCK-8
Procedure: as §1, §2, §3, §4
An LNP formulation containing […] of Fluc-mRNA (the carrier components of the LNP formulation were cationic lipid, neutral lipid, structured lipid and polymer-conjugated lipid with a molar ratio of 49:10:39.5:1.5, wherein the cationic lipid was listed in Table 1) and the formulation of Lipofectamine 3000 were added to the cell culture medium of a 96-well plate, and further cultivated for 24 hours. 10 μL of CCK-8 solution was then added to each well, and the culture plate was incubated in an incubator for 1 hour. The absorbance at 450 nm was measured by a microplate reader.
Cell survival rate can represent the toxicity of cationic lipids to cells. The higher the cell survival rate, the lower the toxicity to cells.

[5] = 6 h after intramuscular injection
[6] = 24 h after intramuscular injection
[7] = 48 h after intramuscular injection
[8] = 7 d after intramuscular injection

CCCCCCCCCCOC(=O)CCCN(CCCCCC(=O)OCCC(CCCCCC)CCCCCC)C[C@H](O)CN(CC)CCO [YK-309, (S)-3-hexylnonyl-6-(4-(decyloxy)-4-oxobutyl)(2-hydroxy-3-(((2-hydroxyethyl)(ethyl)amino)propyl)amino)hexanoate]
PDI (%) [1]: 27.6%
Particle size (nm) [1]: 232 nm
Relative light unit (RLU) [2]: 125370 RLU
Multiples (YK-305) [2]: 218.62
Multiples (YK-310) [2]: 205.77
Multiples (YK-312) [2]: 160.71
Ratio relative to SM-102 [2]: 0.08
average radiation intensity [3, 5]: 65680
average radiation intensity [3, 6]: 16820
average radiation intensity [3, 7]: 6551
average radiation intensity [3, 8]: 1256
Cell survival rate (%) [4]: 31.61%

CCCCCCCCC(CCCCCCCC)OC(=O)CCCCCN(CCCCCC(=O)OC(CCCCCCCC)CCCCCCCC)C[C@H](O)CN(CCO)CCO [YK-318, (S)-bis(heptadecan-9-yl)-6,6′-((3-(bis(2-hydroxyethyl)amino)-2-hydroxypropyl)azanediyl)dihexanoate]
PDI (%) [1]: 14.8%
Particle size (nm) [1]: 173 nm
Relative light unit (RLU) [2]: 11190068 RLU
Multiples (YK-305) [2]: 2.45
Multiples (YK-310) [2]: 2.31
Multiples (YK-312) [2]: 1.80
Multiples (YK-318) ([2]; RLU of YK-318 / RLU of the lipid of the line, Tables 5, 7, 11): 1.00
Multiples (YK-319) ([2]; RLU of YK-319 / RLU of the lipid of the line, Tables 5, 7, 11): 2.19
Ratio relative to SM-102 [2]: 6.98
cell transfection efficiency, times that of ALC-0315 ([2]; comparator ALC-0315): 5.50 times
cell transfection efficiency, times that of HHMA ([2]; comparator HHMA): 5.58 times
cell transfection efficiency, times that of Lipofectamine 3000 ([2]; comparator Lipofectamine 3000): 9.44 times
cell transfection efficiency, times that of YK-009 ([2]; comparator YK-009): 2.19 times
cell transfection efficiency, times that of YK-301 ([2]; comparator YK-301): 13.28 times
cell transfection efficiency, times that of YK-302 ([2]; comparator YK-302): 402.84 times
cell transfection efficiency, times that of YK-303 ([2]; comparator YK-303): 17.87 times
cell transfection efficiency, times that of YK-304 ([2]; comparator YK-304): ~400 times and 540.95 times
cell transfection efficiency, times that of YK-306 ([2]; comparator YK-306): 5.09 times
cell transfection efficiency, times that of YK-307 ([2]; comparator YK-307): 2.46 times
cell transfection efficiency, times that of YK-308 ([2]; comparator YK-308): 4.86 times
cell transfection efficiency, times that of YK-309 ([2]; comparator YK-309): ~90 times and 89.26 times
cell transfection efficiency, times that of YK-311 ([2]; comparator YK-311): 5.70 times
cell transfection efficiency, times that of YK-313 ([2]; comparator YK-313): 12.91 times
cell transfection efficiency, times that of YK-314 ([2]; comparator YK-314): 20.44 times
cell transfection efficiency, times that of YK-315 ([2]; comparator YK-315): 7.05 times
cell transfection efficiency, times that of YK-316 ([2]; comparator YK-316): 2.33 times
cell transfection efficiency, times that of YK-317 ([2]; comparator YK-317): 3.10 times
cell transfection efficiency, times that of YK-320 ([2]; comparator YK-320): 4.14 times
cell transfection efficiency, times that of YK-321 ([2]; comparator YK-321): 7.97 times
cell transfection efficiency, times that of compound 21 ([2]; comparator compound 21): 7.81 times
cell transfection efficiency, times that of compound 23 ([2]; comparator compound 23): 8.25 times
average radiation intensity, times that of ALC-0315 ([3]; 6 h): 3.85 times
average radiation intensity, times that of HHMA ([3]; 6 h): 5.11 times
average radiation intensity, times that of SM-102 ([3]; 6 h): 4.74 times
expression of mRNA in mice, times that of YK-302 ([3]; 6 h): 228.10 times
expression amount, times that of YK-321 ([3]; 6 h): 6.45 times
average radiation intensity, times that of compound 21 ([3]; 6 h): 5.45 times
average radiation intensity, times that of compound 23 ([3]; 6 h): 5.64 times
average radiation intensity [3, 5]: 3325680
average radiation intensity, times that of ALC-0315 ([3]; 24 h): 5.08 times
average radiation intensity, times that of HHMA ([3]; 24 h): 8.08 times
average radiation intensity, times that of SM-102 ([3]; 24 h): 8.04 times
expression of mRNA in mice, times that of YK-302 ([3]; 24 h): 244.83 times
expression amount, times that of YK-321 ([3]; 24 h): 9.57 times
average radiation intensity, times that of compound 21 ([3]; 24 h): 8.82 times
average radiation intensity, times that of compound 23 ([3]; 24 h): 9.27 times
average radiation intensity [3, 6]: 968540
average radiation intensity, times that of ALC-0315 ([3]; 48 h): 8.96 times
average radiation intensity, times that of HHMA ([3]; 48 h): 10.96 times
average radiation intensity, times that of SM-102 ([3]; 48 h): 10.96 times
expression of mRNA in mice, times that of YK-302 ([3]; 48 h): 348.11 times
expression amount, times that of YK-321 ([3]; 48 h): 9.76 times
average radiation intensity, times that of compound 21 ([3]; 48 h): 11.52 times
average radiation intensity, times that of compound 23 ([3]; 48 h): 10.77 times
average radiation intensity [3, 7]: 356810
average radiation intensity, times that of ALC-0315 ([3]; 7 d): 7.19 times
average radiation intensity, times that of HHMA ([3]; 7 d): 8.63 times
average radiation intensity, times that of SM-102 ([3]; 7 d): 7.65 times
expression of mRNA in mice, times that of YK-302 ([3]; 7 d): 131.92 times
expression amount, times that of YK-321 ([3]; 7 d): 7.69 times
average radiation intensity, times that of compound 21 ([3]; 7 d): 7.86 times
average radiation intensity, times that of compound 23 ([3]; 7 d): 8.12 times
average radiation intensity [3, 8]: 50659
Cell survival rate (%) [4]: 75.56%
cell survival rate higher than ALC-0315 ([4]; difference of survival rates, comparator ALC-0315): 24.53%
cell survival rate higher than HHMA ([4]; difference of survival rates, comparator HHMA): 9.09%
cell survival rate higher than Lipofectamine 3000 ([4]; difference of survival rates, comparator Lipofectamine 3000): 50.55%
cell survival rate higher than SM-102 ([4]; difference of survival rates, comparator SM-102): 6.11%
cell survival rate higher than YK-301 ([4]; difference of survival rates, comparator YK-301): 22.60%
cell survival rate higher than YK-302 ([4]; difference of survival rates, comparator YK-302): 59.13%
cell survival rate higher than YK-303 ([4]; difference of survival rates, comparator YK-303): 12.24%
cell survival rate higher than YK-304 ([4]; difference of survival rates, comparator YK-304): 41.40%
cell survival rate higher than YK-306 ([4]; difference of survival rates, comparator YK-306): 33.37%
cell survival rate higher than YK-307 ([4]; difference of survival rates, comparator YK-307): 14.42%
cell survival rate higher than YK-308 ([4]; difference of survival rates, comparator YK-308): 4.57%
cell survival rate higher than YK-309 ([4]; difference of survival rates, comparator YK-309): 43.95%
cell survival rate higher than YK-311 ([4]; difference of survival rates, comparator YK-311): 5.50%
cell survival rate higher than YK-313 ([4]; difference of survival rates, comparator YK-313): 6.63%
cell survival rate higher than YK-314 ([4]; difference of survival rates, comparator YK-314): 7.68%
cell survival rate higher than YK-315 ([4]; difference of survival rates, comparator YK-315): 4.28%
cell survival rate higher than YK-316 ([4]; difference of survival rates, comparator YK-316): 5.03%
cell survival rate higher than YK-317 ([4]; difference of survival rates, comparator YK-317): 16.38%
cell survival rate higher than YK-320 ([4]; difference of survival rates, comparator YK-320): 4.49%
cell survival rate higher than YK-321 ([4]; difference of survival rates, comparator YK-321): 3.22%
cell survival rate higher than compound 21 ([4]; difference of survival rates, comparator compound 21): 5.35%
cell survival rate higher than compound 23 ([4]; difference of survival rates, comparator compound 23): 4.06%
